According to ChEMBL document CHEMBL1201862, “PubChem BioAssay data set” (2004):
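Exposure lasted 48 hours, with cells grown in 96-well plates and compounds tested at five concentrations. GI50: concentration for 50% inhibition of growth.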 Activity calls are given as the source filed them. No stated cut-off is given here; in the data, active = GI50 up to about 1.1 µM and inactive = higher.

Key:
Assay in all cases: inhibition of tumour cell growth, NCI panel, 48 h
[1] = system: OVCAR-8
[2] = system: BT-549
[3] = system: T47D
[4] = system: HCT-15
[5] = system: LOX IMVI
[6] = system: TK-10
[7] = system: CAKI-1
[8] = system: HT-29
[9] = system: OVCAR-5
[10] = system: SNB-75
[11] = system: EKVX
[12] = system: MDA-MB-231
[13] = system: NCI/ADR-RES
[14] = system: DU-145
[15] = system: MDA-MB-435
[16] = system: HOP-92
[17] = system: NCI-H23
[18] = system: HCT-116
[19] = system: OVCAR-3
[20] = system: SK-OV-3

Structure (SMILES) | GI50 [1] | GI50 [2] | GI50 [3] | GI50 [4] | GI50 [5] | GI50 [6] | GI50 [7] | GI50 [8] | GI50 [9] | GI50 [10] | GI50 [11] | GI50 [12] | GI50 [13] | GI50 [14] | GI50 [15] | GI50 [16] | GI50 [17] | GI50 [18] | GI50 [19] | GI50 [20]
CCCCCCCCC[C@@H]1C[C@@H]2CCC3C(C(=O)OCCCCNC(=O)OCc4ccccc4)=C(C)N=C(N1)N32 (some centres not stated) | 2.58 µM (inactive) | 3.67 µM (inactive) | 2.57 µM (inactive) | 2.81 µM | 2.09 µM (inactive) | 4.5 µM (inactive) | 3.62 µM (inactive) | 3.29 µM (inactive) | 5.78 µM (inactive) | 4.59 µM (inactive) | 2.72 µM (inactive) | 2.28 µM (inactive) | 2.62 µM (inactive) | 4.76 µM (inactive) | 2.78 µM (inactive) | 2.78 µM (inactive) | 2.56 µM (inactive) | 3.11 µM (inactive) | 4.04 µM (inactive) | 3.2 µM (inactive)
COc1cc2c(cc1OC)C13CCN4C=C5CCOC6CC(=O)N2C1C6C5CC43 (configuration not stated) | > 100 µM (inactive) | > 100 µM (inactive) | > 100 µM (inactive) | > 100 µM | > 100 µM (inactive) | > 100 µM (inactive) | > 100 µM (inactive) | > 100 µM (inactive) | > 100 µM (inactive) | > 100 µM (inactive) | > 100 µM (inactive) | > 100 µM (inactive) | > 100 µM (inactive) | > 100 µM (inactive) | > 100 µM (inactive) | > 100 µM (inactive) | > 100 µM (inactive) | > 100 µM (inactive) | > 100 µM (inactive) | > 100 µM (inactive)
Cc1nc(Nc2ccc(Cl)c(Cl)c2)sc1C(/C=C/c1ccc2c(c1)OCO2)=N/Nc1ccc([N+](=O)[O-])cc1[N+](=O)[O-] | > 100 µM (inactive) | > 100 µM (inactive) | > 100 µM (inactive) | > 97.1 µM | 67 µM (inactive) | 66.5 µM (inactive) | > 46.5 µM (inactive) | > 100 µM (inactive) | > 100 µM (inactive) | 13.2 µM (inactive) | > 100 µM (inactive) | > 100 µM (inactive) | > 100 µM (inactive) | > 100 µM (inactive) | > 100 µM (inactive) | 85.1 µM (inactive) | 67.3 µM (inactive) | 56.5 µM (inactive) | > 100 µM (inactive) | > 91.8 µM (inactive)
CCN(CC)CCOCCOCC1(c2ccc(Cl)c(Cl)c2)CCCCC1 | 13.8 µM (inactive) | 12.7 µM (inactive) | 3.48 µM (inactive) | 4.34 µM | 7.08 µM (inactive) | 9.38 µM (inactive) | 10.1 µM (inactive) | 2.29 µM (inactive) | 11.5 µM (inactive) | 7.64 µM (inactive) | 8.17 µM (inactive) | 10.8 µM (inactive) | 11.4 µM (inactive) | 8.71 µM (inactive) | 4 µM (inactive) | 6.14 µM (inactive) | 11 µM (inactive) | 5.82 µM (inactive) | 8.67 µM (inactive) | 11.6 µM (inactive)
COc1ccc2c(c1)CCc1cc(C(N)=O)c3nnnn3c1-2 | > 52.7 µM (inactive) | 35.5 µM (inactive) | 25.2 µM (inactive) | > 100 µM | > 58.1 µM (inactive) | 8.13 µM (inactive) | 36.7 µM (inactive) | > 100 µM (inactive) | > 100 µM (inactive) |  | < 0.0224 µM (active) | > 49.2 µM (inactive) | > 84.5 µM (inactive) | 23.7 µM (inactive) | > 100 µM (inactive) | 30.9 µM (inactive) | 60.1 µM (inactive) | 67.1 µM (inactive) | > 54.3 µM (inactive) | 54.3 µM (inactive)
COc1cc(/C=C2\C(=O)N(c3cccc(Cl)c3)C(c3ccccc3)S2(=O)=O)cc(OC)c1OC (configuration not stated) | 86.7 µM (inactive) | > 100 µM (inactive) | 41.3 µM (inactive) | 54.3 µM | 22.2 µM (inactive) | > 100 µM (inactive) | > 100 µM (inactive) | > 100 µM (inactive) | > 100 µM (inactive) |  | > 100 µM (inactive) | > 100 µM (inactive) | 38.1 µM (inactive) | > 100 µM (inactive) | 30.5 µM (inactive) | 30.6 µM (inactive) | 66.2 µM (inactive) | 24.1 µM (inactive) | 48.8 µM (inactive) | 58.1 µM (inactive)
C/C(=N\O)c1cccc(Nc2nc3ccccc3c3occc23)c1 | 16.6 µM (inactive) | 13.1 µM (inactive) | 7.73 µM (inactive) | 7.94 µM | 13.6 µM (inactive) | 13 µM (inactive) | 10.7 µM (inactive) | 4.32 µM (inactive) | 14.9 µM (inactive) | 16.2 µM (inactive) | 12.7 µM (inactive) | 11.9 µM (inactive) | 13.1 µM (inactive) | 13.2 µM (inactive) | 10.1 µM (inactive) | 5.3 µM (inactive) |  | 12.3 µM (inactive) | 13.7 µM (inactive) | 15 µM (inactive)
